US8536202B2, “Triazole-substituted anthranilamides as pesticides” (Bayer Cropscience AG, priority 2010, dated 2013)
Where two headings read alike, the source gives them in different places.

Key:
[1] = log P determination by HPLC on reversed-phase columns (EEC Directive 79/831 Annex V.A8); assay type: physicochemical; settings: pH 2.7
Outline: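 Calibration used unbranched alkan-2-ones of 3 to 16 carbons with known log P, values interpolated linearly from retention times between neighbouring standards. Acidic-range LC-MS run at pH 2.7, eluents aqueous and acetonitrile formic acid 0.1%, linear gradient 10% to 95% acetonitrile.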

[2] = system: caterpillars of the armyworm (Spodoptera frugiperda); assay: Spodoptera frugiperda test (SPODFR spray treatment); assay type: in vivo; settings: 168 h; for pest or weed control at 100 g/ha: read-out: activity in %
Outline: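 Percent caterpillar mortality read 7 days after infestation (0% none killed, 100% all killed). Treatment was a spray of the acetone/DMF/emulsifier formulation, water-diluted to test concentration, onto Zea mays leaf discs, allowed to dry before larvae were added.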

[3] = system: larvae of the mustard beetle (Phaedon cochleariae); assay: Phaedon test (PHAECO spray treatment); assay type: in vivo; settings: 168 h, read-out: activity in %
Outline: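 Mortality of mustard beetle larvae, expressed as percent killed (100% all, 0% none), assessed 7 days after spraying. Spray liquor made from compound in acetone plus dimethylformamide with alkylaryl polyglycol ether, diluted in emulsifier-containing water to the desired concentration.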

[4] = reversed-phase C18 HPLC column, HPLC on reversed-phase columns (C 18), EEC Directive 79/831 Annex V.A8, read-out: logP

chromatographic logP [1, 4] | Structure (SMILES) | chromatographic logP [1] | pest or weed control at 100 g/ha ([2]; 100 g/ha, after 7 days) [%] | pest or weed control at 100 g/ha ([3]; 100 g/ha, after 7 days) [%] | chromatographic logP ([1]; HPLC on reversed-phase columns (C 18), EEC Directive 79/831 Annex V.A8, read-out: logP) | pest or weed control at 100 g/ha [2] [%] | pest or weed control at 100 g/ha [3] [%] | pest or weed control at 20 g/ha ([2]; 20 g/ha, after 7 days) [%]
 | CNC(=O)c1cc(C#N)cc(C)c1NC(=O)c1cc(Cn2nnc3c(Cl)c(Cl)c(Cl)cc32)nn1-c1ncccc1Cl [Example 96] | 3.42 | 100 | 100 |  |  |  | 
 | CNC(=O)c1cc(F)cc(C)c1NC(=O)c1cc(Cn2ncc(C(F)(F)F)n2)nn1-c1ncccc1Cl [Example 167] | 2.63 | 100 | 100 |  |  |  | 
 | O=C(NCC1CC1)c1cc(Cl)cc(Cl)c1NC(=O)c1cc(Cn2ncc(C(F)(F)F)n2)nn1-c1ncccc1Cl [Example 152] | 3.48 | 100 | 100 |  |  |  | 
 | N#CCNC(=O)c1cc(Cl)cc(Cl)c1NC(=O)c1cc(Cn2cc(C(F)(F)F)nn2)nn1-c1ncccc1Cl [Example 205] | 2.63 | 100 | 100 |  |  |  | 
3.84 | O=C(NCC1CC1)c1cc(Cl)cc(Cl)c1NC(=O)c1cc(Cn2cc(C(F)(C(F)(F)F)C(F)(F)F)nn2)nn1-c1ncccc1Cl [Example 245] |  | 100 | 100 |  |  |  | 
 | CCNC(=O)c1cc(I)cc(C)c1NC(=O)c1cc(Cn2cc(C(F)(F)C(F)(F)C(F)(F)F)nn2)nn1-c1ncccc1Cl [Example 335] |  |  |  | 3.83 | 100 | 100 | 
 | Cc1cc(I)cc(C(=O)NCC2CC2)c1NC(=O)c1cc(Cn2cc(C(F)(F)F)nn2)nn1-c1ncccc1Cl [Example 214] | 3.45 | 100 | 100 |  |  |  | 
 | O=C(NC1CC1)c1cc(Cl)cc(Cl)c1NC(=O)c1cc(Cn2cc(C(F)(C(F)(F)F)C(F)(F)F)nn2)nn1-c1ncccc1Cl [Example 248] | 3.56 | 100 | 100 |  |  |  | 
 | Cc1cc(C#N)cc(C(=O)NC(C)(C)C)c1NC(=O)c1cc(Cn2nnc3c(Cl)c(Cl)c(Cl)cc32)nn1-c1ncccc1Cl [Example 108] | 4.18 | 100 | 100 |  |  |  | 
4.15 | Cc1cc(Cl)cc(C(=O)NC(C)C2CC2)c1NC(=O)c1cc(Cn2cc(C(F)(C(F)(F)F)C(F)(F)F)nn2)nn1-c1ncccc1Cl (stereo not drawn) [Example 226] |  |  | 100 |  |  |  | 100
 | CNC(=O)c1cc(Cl)cc(C)c1NC(=O)c1cc(Cn2nc(C(F)(F)F)c(C(F)(F)F)n2)nn1-c1ncccc1Cl [Example 411] | 3.78 | 100 | 100 |  |  |  | 
 | CSC[C@H](C)NC(=O)c1cc(I)cc(C)c1NC(=O)c1cc(Cn2nc(C(F)(F)F)c(C(F)(F)F)n2)nn1-c1ncccc1Cl [Example 388] | 4.64 | 100 | 100 |  |  |  | 
 | Cc1cc(C#N)cc(C(=O)NC(C)(C)C)c1NC(=O)c1cc(Cn2nnc3cc(C(F)(F)F)ccc32)nn1-c1ncccc1Cl [Example 113] | 3.5 | 100 | 100 |  |  |  | 
 | CNC(=O)c1cc(I)cc(C)c1NC(=O)c1cc(Cn2cc(C(F)(F)F)nn2)nn1-c1ncccc1Cl [Example 206] | 2.86 | 100 | 100 |  |  |  | 
 | CNC(=O)c1cc(C#N)cc(C)c1NC(=O)c1cc(Cn2ncc(-c3ccc(Cl)cc3)n2)nn1-c1ncccc1Cl [Example 41] | 3.34 | 100 | 100 |  |  |  | 
 | Cc1cc(Cl)cc(C(=O)NC(C)C)c1NC(=O)c1cc(Cn2cc(C(F)(F)F)nn2)nn1-c1ncccc1Cl [Example 190] | 3.06 | 100 | 100 |  |  |  | 
 | Cc1cc(I)cc(C(=O)NC(C)C2CC2)c1NC(=O)c1cc(Cn2cc(C(F)(F)F)nn2)nn1-c1ncccc1Cl (stereo not drawn) [Example 207] | 3.69 | 100 | 100 |  |  |  | 
